Reference: patent publication US20090048348A1, “METHOD FOR TREATING AUTISM” (Forest Laboratories Holdings Ltd., priority 2004, published 2009)
Structures can show the parent of a compound that is named as a salt.

Tested on: children and adolescents with autistic spectrum disorders
Experiment: Open-label trial of Memantine in children and adolescents with autistic spectrum disorders
Assay type: in vivo, human
Procedure: In support of the present invention, an experiment was conducted to evaluate the use of Memantine in children and adolescents with autistic spectrum disorders (hereinafter referred to as “ASD”). […] A range of 2.5-10 mg per day of Memantine was applied as an open-label trial in children with ASD. Clinical observations of global function in language and/or behavior pattern were assessed. Thirty patients, including 24 males and 6 females with an average age of 8.92 years and meeting DSM-IV criteria for ASD, were treated with Memantine for greater than 8 weeks. The patients were evaluated using a global clinical improvement scale rating for improvement in language and behaviors based on parental observation and clinical appearance. Improvements were rated as follows: moderate to significant, mild to moderate, or no improvement. The therapy ranged from between 8 to 40 weeks, with an average duration of therapy of 18 weeks and an average daily dosage of 8.1 mg. After the thirty patients were treated for more than 2 months with Memantine, parents reported improvements in 26 of the 30 patients in one or more categories: attention, motor planning, language function (both receptively and expressively), and self-stimulatory behaviors. Moderate to significant improvement occurred in 16 of the 26, with milder improvement in 10 of the 26.

[1] = open-label, 2.5-10 mg per day, treated more than 2 months, global clinical improvement scale

CC12CC3CC(C)(C1)CC(N)(C3)C2 [Memantine, 1-amino-3,5-dimethyladamantane hydrochloride]
frontal executive functions (attention, speech expression, perseveration) (open-label trial in ASD, overall clinical observation): appears to clearly improve frontal executive functions
side effects (open-label, 2.5-10 mg per day, 30 patients treated more than 2 months): No side effects were reported
patients with parent-reported improvements in one or more categories (attention, motor planning, language function, self-stimulatory behaviors) (open-label, 2.5-10 mg per day, average 8.1 mg daily, treated more than 2 months (8 to 40 weeks), global clinical improvement scale): 26 of the 30 patients
patients with milder improvement [1]: 10 of the 26
patients with moderate to significant improvement [1]: 16 of the 26
